Experimental data published in US20160015786A1, “MOBILIZING AGENTS AND USES THEREFOR” (MATER MEDICAL RESEARCH INSTITUTE LIMITED, priority 2013, published 2016).

Tests used:
Type in all cases: in vivo, C57BL/6 mice
[1] = Spleen weight after mobilization treatment
Experimental: Additional HIF-α potentiating agents in the form of PHD inhibitors were tested for their ability to enhance mobilization induced by G-CSF. Compound A, Compound B or Compound C, were tested in male, 7 weeks-old C57BL/6 mice. Mice were injected twice daily sub-cutaneously with rhuG-CSF at a dose of 125 μg/kg per injection for four days. […]
(§1) At the end of treatment, blood was harvested by cardiac puncture, mice were sacrificed by cervical dislocation and spleens harvested. Femurs were removed, cleaned and the bone marrow was flushed with 1 mL PBS+10% newborn calf serum (NCS).

[2] = system: hematopoietic stem and progenitor cells; test: Phenotypic HSCs, HSPCs and myeloid progenitors in blood, spleen and bone marrow by flow cytometry; conditions: for mobilization of myeloid progenitors (LKS−) to the blood / increase in mobilization of myeloid progenitors (LKS−) to the spleen / increase in number of HSPCs (LSK48+ and LSK) mobilized to the spleen / increase in number of phenotypic HSCs (LSK48−150+) mobilized to the spleen: Example 6: 20 mg/kg + G-CSF vs vehicle + G-CSF; for increase in mobilization of myeloid progenitors (LKS−) to the spleen / increase in number of HSPCs (LSK48+ and LSK) mobilized to the spleen / increase in number of phenotypic HSCs (LSK48−150+) mobilized to the spleen: FIGS. 8A-B; for total number of phenotypic HSPCs in the bone marrow: Example 6: 20 mg/kg once daily 3 days + rhuG-CSF 125 μg/kg twice daily 4 days vs vehicle + G-CSF, FIGS. 6A-B; for increase in total number of HSPCs (LSK48+ and LSK) mobilized from the bone marrow / increase in total number of myeloid progenitors (LKS−) mobilized from the bone marrow / increase in total number of phenotypic HSCs (LSK48−150+) mobilized from the bone marrow: Example 6: blood and spleen, 20 mg/kg + G-CSF vs vehicle + G-CSF, FIGS. 9A-B; for total number of HSPCs (LSK48+ and LSK) mobilized blood and spleen / total number of phenotypic HSCs (LSK48−150+) mobilized blood and spleen: Example 8: 60 mg/kg + G-CSF vs vehicle + G-CSF, FIGS. 14A-B
Experimental: (§2) Additional HIF-α potentiating agents in the form of PHD inhibitors were tested for their ability to enhance mobilization induced by G-CSF. Compound A, Compound B or Compound C, were tested in male, 7 weeks-old C57BL/6 mice. Mice were injected twice daily sub-cutaneously with rhuG-CSF at a dose of 125 μg/kg per injection for four days. Mice were gavaged with 20 mg/kg Compound A, Compound B, Compound C or vehicle control once daily for three days beginning on day 1 of the experiment.
as §1
(§3) The number of phenotypic hematopoietic stem and progenitor cells remaining in the bone marrow following treatment was measured by flow cytometry using antibodies specific for lineage markers (CD3, CD5, CD45R/B220, F4/80, Gr1, CD41, Ter119), Sca-1, Kit, CD48 and CD150. Similarly, the number of phenotypic hematopoietic stem cells mobilized into the blood and spleen were measured. Colony assays were also performed on blood and spleen to determine the number of colony forming cells per mL of blood and per spleen. All results are presented as mean f standard deviation with n=6 per groups. Levels of significance for differences were calculated using the Student's t-test.
All procedures were approved by the animal experimentation ethics committee of the University of Queensland. All experiments were performed on nine to twelve-week old C57BL/6 male mice or genetically modified mice back-crossed at least 10 times into C57BL/6. Recombinant human G-CSF (Amgen, Thousand Oaks, Calif.) was injected twice daily subcutaneously at 125 μg/kg per injection for up to 4 consecutive days. Plerixafor (AMD3100 octohydrochloride, Tocris Bioscience, Bristol, UK) was injected intraperitoneally as a single 16 mg/kg dose corresponding to 10 mg/kg of AMD3100 base. Tissues were harvested 1 h after Plerixafor administration. […] Compounds H and J were administered at 60 mg/kg and Compound K was administered at 100 mg/kg. Control mice were injected with an equivalent volume of saline. At specified time-points, mice were anesthetized with isoflurane before cardiac puncture to harvest blood. Mice were then euthanized by cervical dislocation and BM and bones harvested.
Following flushing with PBS plus 2% NCS, enriched central BM cells were pelleted at 370×g for 5 minutes at 4° C. and resuspended in CD16/CD32 hybridoma 2.4G2 supernatant to block IgGFc receptors. HSCs were stained with the biotinylated lineage antibody cocktail (CD3, CD5, B220, CD11b, Gr-1, Ter119) and biotinylated CD41 together with streptavidin (SAV)-Pacific Blue, anti-Sca-1-PECY7, anti-KIT-APC, CD48-FITC and CD150-PE as previously described (17). Data were acquired on a CyAn (Dako Cytomation) flow cytometer and analyzed following compensation with single color controls using FlowJo software (Tree Star, Ashland, Oreg.).

[3] = system: white blood cells; test: White blood cell number per mL of blood after mobilization treatment; conditions: Example 6: 20 mg/kg + G-CSF vs vehicle + G-CSF; FIG. 11
Experimental: as §2, §1

[4] = system: colony-forming cells (CFCs); test: Mobilization of colony-forming cells (CFC/CFU) to blood and spleen, colony assays; conditions: for number of colony forming units mobilized to the spleen / total number (blood and spleen) of mobilized CFUs: Example 8: H and J 60 mg/kg, K 100 mg/kg
Experimental: Mobilization of colony-forming cells (CFCs) to the blood and spleen were measured (FIG. 1B).
This was divided into two experiments in which G-CSF was administered for 2 days in one experiment and 4 days in the other (FIG. 2). […] Mobilization of CFCs, phenotypic Lin^−CD41^−Sca1^+Kit^+ HSPCs and Lin^−CD41^− Sca1^+Kit^+CD48^−CD150^+ HSCs were measured in blood and spleens.
Additional HIF-α potentiating agents in the form of PHD inhibitors were tested for their ability to enhance mobilization induced by G-CSF.
as §1
as §3, with “All results are presented as mean f standard deviation with n=6 per groups.” left out
All procedures were approved by the animal experimentation ethics committee of the University of Queensland. […] Plerixafor (AMD3100 octohydrochloride, Tocris Bioscience, Bristol, UK) was injected intraperitoneally as a single 16 mg/kg dose corresponding to 10 mg/kg of AMD3100 base. Tissues were harvested 1 h after Plerixafor administration. […] Control mice were injected with an equivalent volume of saline. At specified time-points, mice were anesthetized with isoflurane before cardiac puncture to harvest blood. Mice were then euthanized by cervical dislocation and BM and bones harvested.
Optimal concentrations of mouse IL-3, IL-6 and soluble kit ligand were added as conditioned media from stably transfected BHK cell lines. Colonies were counted after 7 days culture at 37° C. in a humidified incubator containing 5% CO2.

[5] = Example 6: 20 mg/kg + G-CSF vs vehicle + G-CSF, FIG. 11
[6] = Example 6: 20 mg/kg + G-CSF vs vehicle + G-CSF, FIG. 10
[7] = Example 7: 20 mg/kg + G-CSF vs vehicle + G-CSF, FIGS. 12A-B
[8] = Example 8: H and J 60 mg/kg, K 100 mg/kg, + G-CSF vs vehicle + G-CSF
[9] = + G-CSF vs vehicle + G-CSF, FIG. 15

N#Cc1nc(C(=O)NCC(=O)O)c(O)c2c(Oc3ccc(Cl)cc3)cccc12 [Compound A, {[5-(4-Chloro-phenoxy)-1-cyano-4-hydroxy-isoquinoline-3-carbonyl]-amino}-acetic acid]
increase in spleen weight [1, 5]: approximately 2 fold | mobilization of myeloid progenitors (LKS−) to the blood [2]: did not significantly alter | increase in mobilization of myeloid progenitors (LKS−) to the spleen [2]: approximately 3 fold | increase in number of HSPCs (LSK48+ and LSK) mobilized to the spleen [2]: approximately 2 fold | increase in number of phenotypic HSCs (LSK48−150+) mobilized to the spleen [2]: approximately 2 fold | total number of phenotypic HSPCs in the bone marrow [2]: did not significantly alter | increase in total number of HSPCs (LSK48+ and LSK) mobilized from the bone marrow [2]: approximately 2 fold | increase in total number of myeloid progenitors (LKS−) mobilized from the bone marrow [2]: approximately 6 fold | increase in total number of phenotypic HSCs (LSK48−150+) mobilized from the bone marrow [2]: approximately 2 fold | number of white blood cells per mL of blood [3]: significant increase | number of colony forming units mobilized to the blood [4, 6]: significantly increased

N#Cc1nc(C(=O)NCC(=O)O)c(O)c2c(Oc3ccccc3)cccc12 [Compound B, [(1-Cyano-4-hydroxy-5-phenoxy-isoquinoline-3-carbonyl)-amino]-acetic acid]
increase in spleen weight [1, 5]: approximately 2 fold | mobilization of myeloid progenitors (LKS−) to the blood [2]: did not significantly alter | increase in mobilization of myeloid progenitors (LKS−) to the spleen [2]: approximately 3 fold | increase in number of HSPCs (LSK48+ and LSK) mobilized to the spleen [2]: approximately 2 fold | increase in number of phenotypic HSCs (LSK48−150+) mobilized to the spleen [2]: approximately 2 fold | total number of phenotypic HSPCs in the bone marrow [2]: did not significantly alter | increase in total number of HSPCs (LSK48+ and LSK) mobilized from the bone marrow [2]: approximately 2 fold | increase in total number of myeloid progenitors (LKS−) mobilized from the bone marrow [2]: approximately 6 fold | increase in total number of phenotypic HSCs (LSK48−150+) mobilized from the bone marrow [2]: approximately 2 fold | number of white blood cells per mL of blood [3]: significant increase | number of CFUs mobilized to the spleen [4, 6]: statistically significant | number of colony forming units mobilized to the blood [4, 6]: no significant change | total number of CFUs mobilized, relative to Compound A or Compound C with G-CSF ([4]; Example 6: 20 mg/kg + G-CSF, FIG. 10): comparable

O=c1c(-n2ccnn2)c[nH]n1-c1cc(N2CCOCC2)ncn1 [Compound F, 2-(6-Morpholin-4-yl-pyrimidin-4-yl)-4-[1,2,3]triazol-1-yl-1,2-dihydro-pyrazol-3-one]
increase in spleen weight ([1]; Example 7: D 60 mg/kg, E and F 20 mg/kg, + G-CSF vs vehicle + G-CSF): approximately 2 fold | total number of HSCs (LSK48-150+) mobilized from the bone marrow [2, 7]: significant increase | total number of HSPCs (LSK48+ and LSK) mobilized from the bone marrow [2, 7]: significant increase | total number of HSCs and progenitors in the BM ([2]; Example 7: Compound D 60 mg/kg, E and F 20 mg/kg, + G-CSF vs vehicle + G-CSF): did not significantly alter | total number of myeloid progenitors (LKS−) mobilized ([2]; Example 7: D 60 mg/kg, E and F 20 mg/kg, + G-CSF vs vehicle + G-CSF, FIGS. 12A-B): significant increase | number of CFUs mobilized from the bone marrow to the blood and spleen ([4]; Example 7: D 60 mg/kg, E and F 20 mg/kg, + G-CSF vs vehicle + G-CSF, FIG. 13): significantly increased

O=C(O)CNC(=O)c1ncc2cc(Oc3ccccc3)ccc2c1O [Compound H, [(4-Hydroxy-7-phenoxy-isoquinoline-3-carbonyl)-amino]-acetic acid]
total number of HSPCs (LSK48+ and LSK) mobilized blood and spleen [2]: significant increase | total number of phenotypic HSCs (LSK48−150+) mobilized blood and spleen [2]: significant increase | total number of HSCs and progenitors in the BM [2, 8]: did not significantly alter | number of colony forming units mobilized to the spleen [4, 9]: significant increase | total number (blood and spleen) of mobilized CFUs [4, 9]: significant increase

COc1ccc(Oc2ccc3c(O)c(C(=O)NCC(=O)O)ncc3c2)cc1 [Compound J, {[4-Hydroxy-7-(4-methoxy-phenoxy)-isoquinoline-3-carbonyl]-amino}-acetic acid]
total number of HSPCs (LSK48+ and LSK) mobilized blood and spleen [2]: significant increase | total number of phenotypic HSCs (LSK48−150+) mobilized blood and spleen [2]: significant increase | total number of HSCs and progenitors in the BM [2, 8]: did not significantly alter | number of colony forming units mobilized to the blood ([4]; Example 8: 60 mg/kg + G-CSF vs vehicle control, FIG. 15): significant increase | number of colony forming units mobilized to the spleen [4, 9]: significant increase | total number (blood and spleen) of mobilized CFUs [4, 9]: significant increase

O=C(O)CNC(=O)c1ncc(-c2cccc(F)c2)cc1O [Compound K, {[5-(3-Fluoro-phenyl)-3-hydroxy-pyridine-2-carbonyl]-amino}-acetic acid]
total number of HSCs and progenitors in the BM [2, 8]: did not significantly alter | number of colony forming units mobilized to the spleen [4, 9]: no significant change | total number (blood and spleen) of mobilized CFUs [4, 9]: no significant change
